Assay results taken from patent US20240393340A1, “PROGNOSIS AND PREDICTIVE BIOMARKERS AND BIOLOGICAL APPLICATIONS THEREOF” (INSTITUT GUSTAVE ROUSSY, priority 2013, published 2024).

Assays:
[1] = test system: eIF4E-eIF4G and eIF4E-4EBP1 interactions; test: Proximity ligation assay in cell lines; type: cell-based
Text: FIGS. 4A-4B: The interactions between eIF4E and eIG4G (“Cap-ON”) and between […] (“Cap-OFF” interaction) are (FIG. 4A) visualized by the PLA technique and (FIG. 4B) quantified (number of points per 100 nucleus) using ImageJ for the indicated cell lines and treatments.
FIGS. 5A-5C: The interactions between eIF4E and eIF4G (“Cap-ON”) and between […] (“Cap-OFF” interaction) are (FIG. 5A) visualized by the PLA technique and (FIG. 5B) quantified (number of points per 100 nucleus) using ImageJ for the indicated cell lines and treatments. (FIG. 5C) Cells were treated with increasing concentrations of PLX-4720 for 72 h, and cell viability was determined using CellTiter-Blue by measuring the absorbance at 540 nm in a microplate reader. Error bars show datatstandard error. Means were derived from four replicates (n=4).
FIGS. 9A-9B: The formation of the eIF4F translation initiation complex is associated with resistance to anti-BRAF inhibitors. FIG. 9A: Quantification of the proximity ligation assay showing the number of red spots (corresponding to the interactions between eIF4E-elF4G or eIF4E-4EBP1) per 100 nuclei (quantified with the Volocity software). Data are means±s.d. (n=3). Significance determined by Mann-Whitney U test (*P<0.05, **P<0.01). FIG. 9B: The eIF4E-eIF4G and eIF4E-4EBP1 interactions detected by in situ proximity ligation assay in vemurafenib (6 μM)-treated (24 h) or untreated HT29 colon cancer cell line and BCPAP thyroid cancer cell line respectively. The interactions were visualised as red fluorescent spots by the scanner Olympus VS120. Cell nuclei were stained with DAPI (blue).
Proximity ligation assays (PLAs) were performed on both fixed and permeabilized transfected cell lines in chamber slides and TMA slides containing melanoma tissue. Following dewaxing and rehydrating of tissue sections, antigen retrieval was performed by heating the slides for 30 min at 95° C. in TE buffer, pH 9. […] The number of in situ PLA signals per cell was counted by semi-automated image analysis. […]

ERK phosphorylation = test: Western blot analysis of total and phosphorylated proteins; type: cell-based; conditions: all tested cell lines
[2] = sensitive cell lines A375, Mel888, treated vs untreated

## CCCS(=O)(=O)Nc1ccc(F)c(C(=O)c2c[nH]c3ncc(Cl)cc23)c1F [PLX-4720, N-[3-[(5-Chloro-1H-pyrrolo[2,3-b]pyridin-3-yl)carbonyl]-2,4-difluorophenyl]-1-propanesulfonamide]
[1]; less sensitive / resistant cell lines Mel624, A2058
  Cap-ON and Cap-OFF interaction: didn't affect
[1]; [2]
  eIF4E-4EBP1 (Cap-OFF) interaction: increase
  eIF4E-eIF4G (Cap-ON) interaction: reduced signal counts
ERK phosphorylation
  ERK phosphorylation downstream of BRAF: inhibited ERK phosphorylation
